Experimental data published in ChEMBL document CHEMBL2321784, “Discovery of 5-benzyl-3-phenyl-4,5-dihydroisoxazoles and 5-benzyl-3-phenyl-1,4,2-dioxazoles as potent firefly luciferase inhibitors” (J Med Chem, 2013).
Active and inactive are the calls of the source. No cut-off for these calls is given here.

Columns and labels:
[1] = biological target: Luciferin 4-monooxygenase (Photinus pyralis) (UniProt P08659); assay: Noncompetitive inhibition of recombinant firefly luciferase using ATP as substrate at 1 to 100 nM after 30 mins by Michaelis-Menten plot analysis
Sequence of Luciferin 4-monooxygenase (Photinus pyralis) (P08659 whole entry): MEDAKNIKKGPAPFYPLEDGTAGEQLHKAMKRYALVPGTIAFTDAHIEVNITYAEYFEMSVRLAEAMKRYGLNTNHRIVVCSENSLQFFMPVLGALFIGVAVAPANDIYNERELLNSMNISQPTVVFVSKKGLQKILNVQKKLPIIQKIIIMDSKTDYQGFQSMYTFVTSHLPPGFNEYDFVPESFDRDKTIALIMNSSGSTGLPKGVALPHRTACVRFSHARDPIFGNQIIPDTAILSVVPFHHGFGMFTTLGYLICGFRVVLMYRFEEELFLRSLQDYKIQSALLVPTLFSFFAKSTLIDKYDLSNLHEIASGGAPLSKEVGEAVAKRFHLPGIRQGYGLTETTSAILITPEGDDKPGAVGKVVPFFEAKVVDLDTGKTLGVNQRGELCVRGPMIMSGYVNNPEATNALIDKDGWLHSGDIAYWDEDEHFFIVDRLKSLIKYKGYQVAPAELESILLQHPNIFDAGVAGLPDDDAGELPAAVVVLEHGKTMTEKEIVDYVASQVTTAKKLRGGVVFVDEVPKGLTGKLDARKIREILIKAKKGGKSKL

[2] = biological target: Luciferin 4-monooxygenase (Photinus pyralis) (UniProt P08659); assay: Inhibition of recombinant firefly luciferase activity expressed in U87 cells at 10 uM after 2 mins; type: cell-based; settings: U-87MG ATCC
[3] = biological target: Luciferin 4-monooxygenase (Photinus pyralis, UniProt P08659); assay: Inhibition of recombinant firefly luciferase after 20 mins by luminescence assay
Sequence of Luciferin 4-monooxygenase (P08659 whole entry): as above

[4] = Cytotoxicity against human U87 cells assessed as cell viability at 10 uM after 6 hrs by propidium iodide staining-based fluorescence assay; settings: u-87mg atcc
[5] = biological target: Luciferin 4-monooxygenase (Photinus pyralis) (UniProt P08659); assay: Inhibition of recombinant firefly luciferase at 10 uM after 20 mins by luminescence assay
[6] = biological target: Luciferin 4-monooxygenase (Photinus pyralis) (UniProt P08659); assay: Inhibition of recombinant firefly luciferase at 1 nM after 20 mins by luminescence assay
[7] = biological target: Luciferin 4-monooxygenase (Photinus pyralis) (UniProt P08659); assay: Reversible inhibition of recombinant firefly luciferase incubated for 30 mins measured post compound wash-out by luminescence assay
[8] = biological target: Luciferin 4-monooxygenase (Photinus pyralis) (UniProt P08659); assay: Noncompetitive inhibition of recombinant firefly luciferase using luciferin as substrate at 1 to 100 nM after 30 min by Michaelis-Menten plot analysis
[9] = biological target: T1, Coelenterazine h 2-monooxygenase (Renilla reniformis) (UniProt P27652); assay: Inhibition of sea pansy luciferase after 20 mins by luminescence assay
T1 sequence (whole entry): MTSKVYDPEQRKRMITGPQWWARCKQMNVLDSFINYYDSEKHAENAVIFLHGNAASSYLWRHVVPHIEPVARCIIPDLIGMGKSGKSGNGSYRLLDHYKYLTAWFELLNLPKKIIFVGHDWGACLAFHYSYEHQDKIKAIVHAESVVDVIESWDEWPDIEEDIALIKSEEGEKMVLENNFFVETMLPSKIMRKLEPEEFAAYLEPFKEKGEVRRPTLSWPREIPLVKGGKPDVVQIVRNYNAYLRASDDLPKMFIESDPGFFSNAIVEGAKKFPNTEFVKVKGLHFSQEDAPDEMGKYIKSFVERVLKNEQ

[10] = biological target: Luciferin 4-monooxygenase (Photinus pyralis) (UniProt P08659); assay: Inhibition of recombinant firefly luciferase activity expressed in U87 cells at 10 uM after 48 hrs; type: cell-based; settings: U-87MG ATCC

With `Clc1ccc(C2=NO[C@H](Cc3ccccc3)C2)cc1` the inhibition [1] was “Active”, the inhibition [2] was “Active” and the IC50 [3] was 0.257 nM. The Activity [4] was “Non-toxic”, the inhibition [5] was 99.8% and the inhibition [6] was 72.8%. The inhibition [7] was “Active”, the inhibition [8] was “Active” and the inhibition [9] was “inactive”. The inhibition [10] was “Active”.
